# Experimental data: patent US20190216767A1, “TOPICAL THERAPY FOR THE TREATMENT OF SKIN KERATOSES USING NANOPARTICLES OF TAXANES” (DFB SORIA, LLC, priority 2017, published 2019)
# Read-outs that look alike come from different tables or passages of the source.
# How the values were obtained:
# [1] = methanol/water 15/85 (v/v), 37° C., pH 7, 75 rpm, cited from earlier work
# [2] = Specific surface area (SSA) by BET isotherm; format: physicochemical; details: BET isotherm method, nanoparticle API lot
# Excerpt: (§1) Taxane nanoparticles produced by various supercritical carbon dioxide particle size reduction methods can have unique physical characteristics as compared to taxane nanoparticles produced by conventional particle size reduction methods using physical impacting or grinding, e.g., wet or dry milling, micronizing, disintegrating, comminuting, microfluidizing, or pulverizing. […] This bulk density range is generally lower than the bulk density of taxane particles produced by conventional means, and the SSA is generally higher than the SSA of taxane particles produced by conventional means. […] As used herein, the “specific surface area (SSA)” is the total surface area of the taxane nanoparticle per unit of taxane mass as measured by the Brunauer-Emmett-Teller (“BET”) isotherm by the following method: a known mass between 200 and 300 mg of the analyte is added to a 30 mL sample tube. […] The automated test is then carried out using the BETWIN® software package and the surface area of each sample is subsequently calculated. The bulk density measurement can be conducted by pouring the taxane nanoparticles into a graduated cylinder without tapping at room temperature, measuring the mass and volume, and calculating the bulk density.
# [3] = Bulk density (not tapped); format: physicochemical; details: nanoparticle API lot
# Excerpt: as §1
# [4] = Particle size of paclitaxel nanoparticles lots (ACCUSIZER 780); format: physicochemical; details: nanoparticle API lot
# Experimental: Max. Concentration: 9000 particles/mL, No. containers: 1, Sensor Range: Summation, Lower Detection Limit: 0.5 μm, Flow Rate: 30 mL/min, No. Analysis pulls: 4, Time between pulls: 1 sec, Pull volume: 10 mL, Tare Volume: 1 mL, Prime volume: 1 mL, Include First Pull: Not Selected.
# Vortexed for 5-10 minutes and sonicated in a water batch for 1 minute.
# Filled a plastic bottle with filtered (0.22 μm) 0.1% w/w SDS solution and analyzed the Background.
# [5] = Observation of paclitaxel nanoparticle crystal growth by light microscopy; format: physicochemical
# [6] = tested on: Göttingen minipigs; assay: Dermal toxicity study (GLP, topical daily for 28 days); format: in vivo; details: topical daily for 28 days, 0.3, 1.0 and 3%
# Experimental: The GLP-compliant study was conducted in Göttingen minipigs to characterize the toxicity of the formulations applied topically to 10% body surface area daily for 28 days. […] Reversibility of findings was also evaluated following a 2-week recovery period. Parameters evaluated included clinical observations, mortality and moribundity checks, dermal scoring, body weight, food consumption, eye examinations, test site photographs, electrocardiology, clinical pathology, bioanalysis and toxicokinetic evaluation, organ weights, macroscopic pathology and histopathology. There were no formulation-related effects on survival, clinical signs, dermal irritation, body weights, body weight gains, food consumption, ophthalmic findings, or cardiology parameters.
# [7] = Solubility of paclitaxel in various solvents (HPLC); format: physicochemical
# Experimental: Step “d” was continued for each vial for a total of 48 hours.
# [8] = listed as paclitaxel nanoparticles lot used in the formulas listed in Tables 16-19
# [9] = in Aluminum sulfate 0.1-0.2% in water, @ 7 days, RT
# [10] = in Ammonium lauryl sulfate 2% in water, @ 3 days, RT
# [11] = in Benzalkonium chloride (50%) 2% in water, @ 7 days & 21 days, RT
# [12] = in CARBOPOL ULTREZ 10 (with Ammonium hydroxide as neutralizer) 0.5% in water, @ 8 days & 21 days, RT
# [13] = in Castor Oil 100%, @ 24 hrs & 9 days, RT
# [14] = in Dimethicone, 1000 cSt 100%, @ 24 hrs & 6 days, RT
# [15] = in FOMBLIN HC04 100%, @ 4, 7 & 13 days, RT
# [16] = in Hydroxyethyl cellulose 1% in water, @ 7 days, RT
# [17] = in Hydroxypropyl methylcellulose 1% in water, @ 3 days, RT
# [18] = in Lecithin 1% in water, @ 24 hrs, RT
# [19] = in Light Mineral Oil NF 100%, @ 3 days, RT & 40 C.
# [20] = in Magnesium nitrate 5% in water, @ 3 days, RT
# [21] = in Mannitol 5% in water, @ 7 days, RT
# [22] = in Mineral Oil USP (heavy) 100%, @ 3 days, RT & 40 C.
# [23] = in PEG 400 10% in water, @ 22 days, RT & 60 C.
# [24] = in Poloxamer 188 2% in water, @ 7 days, RT
# [25] = in Poloxamer 407 2% in water, @ 5 & 7 days, RT
# [26] = in Polyoxyl 40 Hydrogenated Castor Oil (KOLLIPHOR RH40) 1% in water, @ 6 days, RT
# [27] = in Polysorbate 80 0.5% in Saline, @ 7 days, RT & 60 C.
# [28] = in Polysorbate 80 0.5% in water, @ 22 days, RT & 60 C.
# [29] = in Povidone 1% in water, @ 7 days & 21 days, RT
# [30] = in Proline 3% in water, @ 7 days, RT
# [31] = in Purified Water 100%, @ 5 days, RT & 60 C.
# [32] = in ST-Cyclomethicone 5 NF 100%, @ 24 hrs & 13 days, RT
# [33] = in Saline 0.9% NaCl in water, @ 7 days, RT & 60 C.
# [34] = in Sodium lauryl sulfate 2% in water, @ 7 days, RT
# [35] = in Sodium phosphate monobasic 0.75% in water, @ 7 days, RT
# [36] = in Sorbitol 5% in water, @ 7 days, RT
# [37] = in Vitamin E TPGS 0.5% in water, @ 6 days, RT
# [38] = in Zinc acetate […] in water, @ 7 days, RT
# [39] = listed as paclitaxel nanoparticles lot used in the formulas listed in Table 3
smiles,measurement,setting,value
"CC(=O)O[C@@]12CO[C@@H]1C[C@H](O)[C@@]1(C)C(=O)[C@H](O)C3=C(C)[C@@H](OC(=O)[C@H](O)[C@@H](NC(=O)OC(C)(C)C)c4ccccc4)C[C@@](O)([C@@H](OC(=O)c4ccccc4)[C@H]21)C3(C)C [Docetaxel nanoparticles, docetaxel]","dissolution rate, % dissolved in 30 minutes",[1]; nanoparticles made by milling,9%
same,"dissolution rate, % dissolved in 30 minutes",[1]; nanoparticles made by the supercritical carbon dioxide method,27%
CC(=O)O[C@H]1C(=O)[C@@]2(C)[C@H]([C@H](OC(=O)c3ccccc3)[C@]3(O)C[C@H](OC(=O)[C@H](O)[C@@H](NC(=O)c4ccccc4)c4ccccc4)C(C)=C1C3(C)C)[C@]1(OC(C)=O)CO[C@@H]1C[C@@H]2O [Paclitaxel nanoparticles lot used in formulas listed in Tabl] [listing 1 of 2 here],specific surface area (SSA),[2]; [8],26.72 m^2/g
same,bulk density (not-tapped),[3]; [8],0.09 g/mL
same,Particle size (number-weighted differential distribution) Mean,[4],0.83 μm
"CC(=O)O[C@H]1C(=O)[C@@]2(C)[C@H]([C@H](OC(=O)c3ccccc3)[C@]3(O)C[C@H](OC(=O)[C@H](O)[C@@H](NC(=O)c4ccccc4)c4ccccc4)C(C)=C1C3(C)C)[C@]1(OC(C)=O)CO[C@@H]1C[C@@H]2O [Paclitaxel nanoparticles, paclitaxel]",Crystal size (visual observation by light microscopy),[5]; [9],> 5 μm
same,Needle shaped crystals observed? (visual observation by light microscopy),[5]; [9],Yes
same,Crystal size (visual observation by light microscopy),[5]; [10],> 5 μm
same,Needle shaped crystals observed? (visual observation by light microscopy),[5]; [10],Yes
same,Crystal size (visual observation by light microscopy),[5]; [11],< 5 μm
same,Needle shaped crystals observed? (visual observation by light microscopy),[5]; [11],No
same,Crystal size (visual observation by light microscopy),[5]; [12],< 5 μm
same,Needle shaped crystals observed? (visual observation by light microscopy),[5]; [12],No
same,Crystal size (visual observation by light microscopy),[5]; [13],< 5 μm
same,Needle shaped crystals observed? (visual observation by light microscopy),[5]; [13],No
same,Crystal size (visual observation by light microscopy),[5]; [14],< 5 μm
same,Needle shaped crystals observed? (visual observation by light microscopy),[5]; [14],No
same,Crystal size (visual observation by light microscopy),[5]; [15],< 5 μm
same,Needle shaped crystals observed? (visual observation by light microscopy),[5]; [15],No
same,Crystal size (visual observation by light microscopy),[5]; [16],> 5 μm
same,Needle shaped crystals observed? (visual observation by light microscopy),[5]; [16],Yes
same,Crystal size (visual observation by light microscopy),[5]; [17],> 5 μm
same,Needle shaped crystals observed? (visual observation by light microscopy),[5]; [17],Yes
same,Crystal size (visual observation by light microscopy),[5]; [18],> 10 μm
same,Needle shaped crystals observed? (visual observation by light microscopy),[5]; [18],Yes
same,Crystal size (visual observation by light microscopy),[5]; [19],< 5 μm
same,Needle shaped crystals observed? (visual observation by light microscopy),[5]; [19],No
same,Crystal size (visual observation by light microscopy),[5]; [20],> 5 μm
same,Needle shaped crystals observed? (visual observation by light microscopy),[5]; [20],Yes
same,Crystal size (visual observation by light microscopy),[5]; [21],> 5 μm
same,Needle shaped crystals observed? (visual observation by light microscopy),[5]; [21],Yes
same,Crystal size (visual observation by light microscopy),[5]; [22],< 5 μm
same,Needle shaped crystals observed? (visual observation by light microscopy),[5]; [22],No
same,Crystal size (visual observation by light microscopy),[5]; [23],> 5 μm
same,Needle shaped crystals observed? (visual observation by light microscopy),[5]; [23],Yes
same,Crystal size (visual observation by light microscopy),[5]; [24],> 5 μm
same,Needle shaped crystals observed? (visual observation by light microscopy),[5]; [24],Yes
same,Crystal size (visual observation by light microscopy),[5]; [25],< 5 μm
same,Needle shaped crystals observed? (visual observation by light microscopy),[5]; [25],No
same,Crystal size (visual observation by light microscopy),[5]; [26],< 5 μm
same,Needle shaped crystals observed? (visual observation by light microscopy),[5]; [26],Yes
same,Crystal size (visual observation by light microscopy),[5]; [27],> 5 μm
same,Needle shaped crystals observed? (visual observation by light microscopy),[5]; [27],Yes
same,Crystal size (visual observation by light microscopy),[5]; [28],< 5 μm
same,Needle shaped crystals observed? (visual observation by light microscopy),[5]; [28],Yes
same,Crystal size (visual observation by light microscopy),[5]; [29],< 5 μm
same,Needle shaped crystals observed? (visual observation by light microscopy),[5]; [29],Yes
same,Crystal size (visual observation by light microscopy),[5]; [30],> 5 μm
same,Needle shaped crystals observed? (visual observation by light microscopy),[5]; [30],Yes
same,Crystal size (visual observation by light microscopy),[5]; [31],> 5 μm
same,Needle shaped crystals observed? (visual observation by light microscopy),[5]; [31],Yes
same,Crystal size (visual observation by light microscopy),[5]; [32],< 5 μm
same,Needle shaped crystals observed? (visual observation by light microscopy),[5]; [32],No
same,Crystal size (visual observation by light microscopy),[5]; [33],> 10 μm
same,Needle shaped crystals observed? (visual observation by light microscopy),[5]; [33],Yes
same,Crystal size (visual observation by light microscopy),[5]; [34],> 5 μm
same,Needle shaped crystals observed? (visual observation by light microscopy),[5]; [34],Yes
same,Crystal size (visual observation by light microscopy),[5]; [35],> 5 μm
same,Needle shaped crystals observed? (visual observation by light microscopy),[5]; [35],Yes
same,Crystal size (visual observation by light microscopy),[5]; [36],> 5 μm
same,Needle shaped crystals observed? (visual observation by light microscopy),[5]; [36],Yes
same,Crystal size (visual observation by light microscopy),[5]; [37],< 5 μm
same,Needle shaped crystals observed? (visual observation by light microscopy),[5]; [37],Yes
same,Crystal size (visual observation by light microscopy),[5]; [38],> 5 μm
same,Needle shaped crystals observed? (visual observation by light microscopy),[5]; [38],Yes
same,crystal growth of paclitaxel nanoparticles,[5]; in any of the hydrophobic carriers,did not grow
same,crystal growth of paclitaxel nanoparticles,"[5]; in aqueous solutions of benzalkonium chloride, CARBOPOL ULTREZ 10, or poloxamer 407",did not grow
same,effect of the presence of the paclitaxel nanoparticles in the formulations on dermal irritation,[6],negligible effect
"CC(=O)O[C@H]1C(=O)[C@@]2(C)[C@H]([C@H](OC(=O)c3ccccc3)[C@]3(O)C[C@H](OC(=O)[C@H](O)[C@@H](NC(=O)c4ccccc4)c4ccccc4)C(C)=C1C3(C)C)[C@]1(OC(C)=O)CO[C@@H]1C[C@@H]2O [Paclitaxel, paclitaxel]",Paclitaxel Solubility at RT,"[7]; in Benzyl Alcohol, NF",17.02% w/w
same,Paclitaxel Solubility at RT,"[7]; in Diethylene Glycol Monoethyl Ether, NF (TRANSCUTOL P)",33.10% w/w
same,Paclitaxel Solubility at RT,[7]; in Diisopropyl Adipate (CERAPHYL 230),3.51% w/w
same,Paclitaxel Solubility at RT,[7]; in Dimethyl Isosorbide,38.22% w/w
same,Paclitaxel Solubility at RT,[7]; in Hexylene Glycol,4.07% w/w
same,Paclitaxel Solubility at RT,"[7]; in Isopropyl Myristate, NF",0.048% w/w
same,Paclitaxel Solubility at RT,"[7]; in Medium Chain Triglycerides, NF",0.32% w/w
same,Paclitaxel Solubility at RT,"[7]; in Mineral Oil, USP (heavy)",0.3 ppm
same,Paclitaxel Solubility at RT,"[7]; in Polyethylene Glycol 400, NF",22.30% w/w
same,Paclitaxel Solubility at RT,[7]; in Propylene Carbonate,4.74% w/w
same,Paclitaxel Solubility at RT,"[7]; in Propylene Glycol, USP",0.88% w/w
same,Paclitaxel Solubility at RT,"[7]; in Purified Water, USP",<0.05 ppm
same,Paclitaxel Solubility at RT,"[7]; in Purified Water, USP, listed as paclitaxel",less than 0.05 ppm
same,Paclitaxel Solubility at RT,"[7]; in Super Refined Oleic Acid, NF",0.041% w/w
same,Paclitaxel Solubility at RT,"[7]; in Super Refined Oleyl Alcohol, NF",0.38% w/w
CC(=O)O[C@H]1C(=O)[C@@]2(C)[C@H]([C@H](OC(=O)c3ccccc3)[C@]3(O)C[C@H](OC(=O)[C@H](O)[C@@H](NC(=O)c4ccccc4)c4ccccc4)C(C)=C1C3(C)C)[C@]1(OC(C)=O)CO[C@@H]1C[C@@H]2O [Paclitaxel nanoparticles lot used in formulas listed in Tabl] [listing 2 of 2 here],specific surface area (SSA),[2]; [39],41.24 m^2/g
same,bulk density (not-tapped),[3]; [39],0.05 g/mL
same,Particle size (number-weighted differential distribution) Mean,[4],0.861 μm
same,Particle size (number-weighted differential distribution) Median,[4],0.710 μm
same,Particle size (number-weighted differential distribution) Mode,[4],0.572 μm
